Results reported in US11998596B2 (priority 2019, dated 2024).

System: PBMCs from ASF-convalescent animals
Type: cell-based, pig

NSTLVIRI
Responding animals (%): 4/20 (20%) | Responding animals (responders/tested): 4/20 (20%)
